# Square brackets hold non-standard residues; d marks the D form. Ends that are not written are not given here. Oic = O=C(O)[C@@H]1C[C@@H]2CCCC[C@@H]2N1; Tic = O=C(O)[C@@H]1Cc2ccccc2CN1
# Biological target: T1, recombinant human GzmA (hGzmA) (Homo sapiens, UniProt P12544)
# T1 construct: active, mature form; purchased Enzo Life Sciences ALX-201-118-C010
# T1 sequence (P12544 29-262): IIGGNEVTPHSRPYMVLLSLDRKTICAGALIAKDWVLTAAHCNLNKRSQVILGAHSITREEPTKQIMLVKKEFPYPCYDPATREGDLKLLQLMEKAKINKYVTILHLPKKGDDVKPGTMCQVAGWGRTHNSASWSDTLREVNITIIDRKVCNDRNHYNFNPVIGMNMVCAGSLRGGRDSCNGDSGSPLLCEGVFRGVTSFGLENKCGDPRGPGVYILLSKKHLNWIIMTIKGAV
# Test: In-gel fluorescence labeling of recombinant active hGzmA
# Type: biochemical
# Conditions: hGzmA 100 nM, 37 °C; for Labeling of recombinant hGzmA (in-gel Cy5 fluorescence): varying probe concentrations, 2 h, SDS-PAGE
# Procedure: Figure 3 GzmA ABPs covalently and competitively label active human and mouse GzmA. […] Recombinant hGzmA (100 nM) was incubated with varying concentrations of each ABP at 37 °C. B) Competitive labeling of hGzmA. Recombinant hGzmA (100 nM) was preincubated with covalent inhibitors 1 or 2 (5 μM) for 2 h, followed by labeling with ABPs 3 –5 (50 nM) for 2 h at 37 °C. Note: Pro‐form of hGzmA (the first lane) is not effectively stained by SYPRO‐Ruby. C) Structure of qABP 6. D) Quenched natures of 5 and 6. […] F) Labeling of mGzmA (1 μM) with 5 and 6 (1 μM, 24 h, 37 °C). Protein samples were analyzed by SDS‐PAGE and in‐gel fluorescence scanning for Cy5 signal and SYPRO Ruby staining. […]
# C. In-gel fluorescence imaging
# For recombinant enzyme labeling, working solutions of hGzmA (purchased from R&D Systems, Cat. No. 2905-SE-010 for pro-from and Enzo Life Sciences, Cat. No.: ALX-201-118-C010 for active, mature form) were prepared by diluting a 12.6 µM stock in the following assay buffer: 50 […]
# mM Tris, 100 mM NaCl, 5 mM CaCl2, 0.01% (v/v) Tween-20, pH 7.5. […]
# In-gel fluorescence and
# SYPRO-Ruby staining images were acquired on a Typhoon FLA9500 instrument, while western blot images were acquired on an AMHERST ImageQuant 800 instrument.
# Conditions for probe/inhibitor treatment for in-gel fluorescence analysis: Inhibitors and probes were incubated with active (or pro-) GzmA followed by treatment with 4X SDS reducing sample buffer. Samples were then heated to 100 °C for 5 min, brought to room temperature, and centrifuged. 20 µL of each sample was loaded onto a 15% polyacrylamide gel, which was then subjected to electrophoresis followed by the acquisition of in-gel fluorescence images. GzmA labeling was confirmed by western blotting, while protein loading was confirmed with SYPRO-Ruby staining. Incubation conditions for each figure/experiment are described below:
# Conditions for Figure 3A: For labeling comparison between 3, 4, and 5, 100 nM of human GzmA was incubated with various concentrations of each probe for 2 h at 37 °C. For time-dependent labeling, 50 nM of 5 was incubated with 100 nM of human GzmA at 37 °C for the specified durations. Final reaction volume for both was 20 µL.
# Conditions for Figure 3B: 100 nM of human GzmA was incubated with DMSO or 5 µM of 1 or 2 for 2 h at 37 °C in Eppendorf tubes. 0.5 µL of a 2 µM solution of 3, 4, or 5 in DMSO was then spiked into the Eppendorf tube, yielding a final probe concentration of 50 nM. The solution was incubated for another 2 h at 37 °C. Final reaction volume was 20 µL.
# Conditions for Figure 3E: 100 nM of human GzmA was incubated with various concentrations of 5 or 6, respectively, for 2 h at 37 °C. Final reaction volume was 20 µL.
# Conditions for Figure 3F: 1 µM of mouse GzmA was incubated with 1 µM of 5 or 6, respectively, for 24 h at 37 °C. Final reaction volume was 20 µL.
# Conditions for Figure 4A: 1 mg/mL of lysates was incubated with various concentrations of 5 or 6, respectively, for 1 h at 37 °C.
# Conditions for Figure 4C: Various concentrations of probes 3-6 were incubated with 1x10^6 NK-92 cells for 2 h at 37 °C in a humidified incubator. Cells were centrifuged, washed with PBS (x2) and lysed with ~40 µL of ice-cold RIPA buffer. Lysates were collected, protein concentration was measured with PIERCE BCA protein assay and samples were analyzed with in-gel fluorescence and GzmA western blotting. […]
# All flow cytometry data were collected on BD LSRFortessa and FACSymphony A5 Cell Analyzers and analyzed with FlowJo software. Briefly, cells were processed according to the intended protocols for each experiment. Thereafter, cells were pelleted, fixed in the dark for 20 min at room temperature (Fixation buffer: BioLegend #420801), and pelleted again by centrifugation. Fixed cells were then resuspended in 1x intracellular staining perm wash buffer (BioLegend #421002), followed by centrifugation two times. Fixed/Permeabilized cells were then resuspended in […]
Substance,Labeling of recombinant hGzmA (in-gel Cy5 fluorescence),Concentration and time dependence of labeling of active hGzmA (time course with 50 nM probe)
GFFR [compound 7],lower labeling efficiency for both hGzmA and mGzmA compared with probes 5 and 6,
IGNR [compound 5],efficiently label recombinant human GzmA (hGzmA) at submicromolar concentrations,concentration‐ and time‐dependent labeling
[Tic]G[Oic]R [compound 6],efficiently (and slightly more strongly than 5) labeled,
